Test results taken from US20210045385A1, “PYRIDAZINONE-SUBSTITUTED KETOXIMES AS HERBICIDES” (FMC Corporation, priority 2018, published 2021).

Key:
Assay type in all cases: in vivo
[1] = test system: sedge umbrella (small-flower umbrella sedge, Cyperus difformis); assay: Test D flooded paddy test, visual plant response rating; details: 250 g ai/ha, scale 0 to 100 (0 no effect, 100 complete control), 13 to 15 d
How it was run: (§1)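 Plants grown to the 2-leaf stage; pots flooded to 3 cm above soil and compound applied directly into paddy water, depth held throughout. Kept in greenhouse 13 to 15 d, then rated visually against untreated controls on a 0–100 scale (0 no effect, 100 complete control).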

[2] = test system: duck salad (Heteranthera limosa); assay: as above; details: 250 g ai/ha, scale 0 to 100 (0 no effect, 100 complete control), 13 to 15 d
How it was run: as §1

rice (Oryza sativa) = assay: as above; details: 250 g ai/ha, scale 0 to 100 (0 no effect, 100 complete control), 13 to 15 d
How it was run: as §1

[3] = test system: barnyardgrass (Echinochloa crus-galli); assay: as above; details: 250 g ai/ha, scale 0 to 100 (0 no effect, 100 complete control), 13 to 15 d
How it was run: as §1

[4] = test system: pigweed (Amaranthus retroflexus); assay: Test C preemergence, visual plant response rating; details: Test C, 0 is no effect, 100 is complete control
How it was run: (§2)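 Seeds sown in a loam–sand blend got a directed preemergence soil spray; postemergence plants (2–10 cm, one- to two-leaf stage) were sprayed with compound in a non-phytotoxic solvent plus surfactant. Injury was scored visually against untreated controls after about 10 d in a greenhouse on a 0–100 scale (100 = complete control).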

[5] = test system: Italian ryegrass (Lolium mutiflorum); assay: Test C preemergence, visual plant response rating; details: Test C, 0 is no effect, 100 is complete control
How it was run: as §2

[6] = test system: foxtail, giant (giant foxtail, Setaria faberi); assay: Test C preemergence, visual plant response rating; details: Test C, 0 is no effect, 100 is complete control
How it was run: as §2

[7] = test system: barnyardgrass (Echinochloa crus-galli); assay: Test C preemergence, visual plant response rating; details: Test C, 0 is no effect, 100 is complete control
How it was run: as §2

kochia (Bassia scoparia) [8] = assay: Test C preemergence, visual plant response rating; details: Test C, 0 is no effect, 100 is complete control
How it was run: as §2

[9] = test system: ragweed (common ragweed, Ambrosia artemisiifolia); assay: Test C preemergence, visual plant response rating; details: Test C, 0 is no effect, 100 is complete control
How it was run: as §2

[10] = test system: pigweed (Amaranthus retroflexus); assay: Test C postemergence, visual plant response rating
How it was run: as §2

[11] = test system: Italian ryegrass (Lolium mutiflorum); assay: Test C postemergence, visual plant response rating
How it was run: as §2

[12] = test system: foxtail, giant (giant foxtail, Setaria faberi); assay: Test C postemergence, visual plant response rating
How it was run: as §2

[13] = test system: galium (catchweed bedstraw, Galium aparine); assay: Test C postemergence, visual plant response rating
How it was run: as §2

[14] = test system: wheat (Triticum aestivum); assay: Test C postemergence, visual plant response rating
How it was run: as §2

[15] = test system: blackgrass (Alopecurus myosuroides); assay: Test C postemergence, visual plant response rating
How it was run: as §2

corn (Zea mays) = assay: Test C postemergence, visual plant response rating
How it was run: as §2

[16] = test system: barnyardgrass (Echinochloa crus-galli); assay: Test C postemergence, visual plant response rating
How it was run: as §2

kochia (Bassia scoparia) [17] = assay: Test C postemergence, visual plant response rating
How it was run: as §2

[18] = test system: ragweed (common ragweed, Ambrosia artemisiifolia); assay: Test C postemergence, visual plant response rating
How it was run: as §2

[19] = Test C, postemergence, 125 g ai/ha

Structure (SMILES)	Plant response rating, Sedge, Umbrella (Flood) [1]	Plant response rating, Ducksalad (Flood) [2]	Plant response rating, Rice (Flood) (rice (Oryza sativa))	Plant response rating, Barnyardgrass (Flood) [3]	Pigweed plant response rating (0 to 100 scale) ([4]; 31 g ai/ha)	Pigweed plant response rating (0 to 100 scale) ([4]; 125 g ai/ha)	Ryegrass, Italian plant response rating (0 to 100 scale) ([5]; 31 g ai/ha)	Ryegrass, Italian plant response rating (0 to 100 scale) ([5]; 125 g ai/ha)	Foxtail, Giant plant response rating (0 to 100 scale) ([6]; 31 g ai/ha)	Foxtail, Giant plant response rating (0 to 100 scale) ([6]; 125 g ai/ha)	Barnyardgrass plant response rating (0 to 100 scale) ([7]; 31 g ai/ha)	Barnyardgrass plant response rating (0 to 100 scale) ([7]; 125 g ai/ha)	Kochia plant response rating (0 to 100 scale) (kochia (Bassia scoparia) [8]; 31 g ai/ha)	Kochia plant response rating (0 to 100 scale) (kochia (Bassia scoparia) [8]; 125 g ai/ha)	Ragweed plant response rating (0 to 100 scale) ([9]; 31 g ai/ha)	Ragweed plant response rating (0 to 100 scale) ([9]; 125 g ai/ha)	Pigweed plant response rating (0 to 100 scale) ([10]; Postemergence, 31 g ai/ha)	Pigweed plant response rating (0 to 100 scale) [10, 19]	Ryegrass, Italian plant response rating (0 to 100 scale) ([11]; Postemergence, 31 g ai/ha)	Ryegrass, Italian plant response rating (0 to 100 scale) [11, 19]	also measured
CO/N=C(\c1c(O)c(Cl)nn(C)c1=O)c1ccc(F)c2ccccc12 [Compound 208]	0	0	0	0	40	100	10	70	50	90	0	80	0	20	60	100	30	40	30	80	Foxtail, Giant plant response rating (0 to 100 scale) ([12]; Postemergence, 31 g ai/ha): 20; Foxtail, Giant plant response rating (0 to 100 scale) [12, 19]: 60; Galium plant response rating (0 to 100 scale) ([13]; Postemergence, 31 g ai/ha): 90; Galium plant response rating (0 to 100 scale) [13, 19]: 100; Wheat plant response rating (0 to 100 scale) ([14]; Postemergence, 31 g ai/ha): 0; Wheat plant response rating (0 to 100 scale) [14, 19]: 0; Blackgrass plant response rating (0 to 100 scale) ([15]; Postemergence, 31 g ai/ha): 0; Blackgrass plant response rating (0 to 100 scale) [15, 19]: 30; Corn plant response rating (0 to 100 scale) (corn (Zea mays); Postemergence, 31 g ai/ha): 0; Corn plant response rating (0 to 100 scale) (corn (Zea mays); [19]): 10; Barnyardgrass plant response rating (0 to 100 scale) ([16]; Postemergence, 31 g ai/ha): 30; Barnyardgrass plant response rating (0 to 100 scale) [16, 19]: 60; Kochia plant response rating (0 to 100 scale) (kochia (Bassia scoparia) [17]; Postemergence, 31 g ai/ha): 50; Kochia plant response rating (0 to 100 scale) (kochia (Bassia scoparia) [17]; [19]): 70; Ragweed plant response rating (0 to 100 scale) ([18]; Postemergence, 31 g ai/ha): 100; Ragweed plant response rating (0 to 100 scale) [18, 19]: 100
CC(C)O/N=C(/c1c(O)c(Cl)nn(C)c1=O)c1ccc(F)c2ccccc12 [Compound 209]	80	50	0	0	20	100	10	30	80	100	50	80	0	40	90	90	50	90	10	40	Foxtail, Giant plant response rating (0 to 100 scale) ([12]; Postemergence, 31 g ai/ha): 70; Foxtail, Giant plant response rating (0 to 100 scale) [12, 19]: 90; Galium plant response rating (0 to 100 scale) ([13]; Postemergence, 31 g ai/ha): 90; Galium plant response rating (0 to 100 scale) [13, 19]: 100; Wheat plant response rating (0 to 100 scale) ([14]; Postemergence, 31 g ai/ha): 0; Wheat plant response rating (0 to 100 scale) [14, 19]: 0; Blackgrass plant response rating (0 to 100 scale) ([15]; Postemergence, 31 g ai/ha): 10; Blackgrass plant response rating (0 to 100 scale) [15, 19]: 30; Corn plant response rating (0 to 100 scale) (corn (Zea mays); Postemergence, 31 g ai/ha): 10; Corn plant response rating (0 to 100 scale) (corn (Zea mays); [19]): 20; Barnyardgrass plant response rating (0 to 100 scale) ([16]; Postemergence, 31 g ai/ha): 50; Barnyardgrass plant response rating (0 to 100 scale) [16, 19]: 80; Kochia plant response rating (0 to 100 scale) (kochia (Bassia scoparia) [17]; Postemergence, 31 g ai/ha): 10; Kochia plant response rating (0 to 100 scale) (kochia (Bassia scoparia) [17]; [19]): 40; Ragweed plant response rating (0 to 100 scale) ([18]; Postemergence, 31 g ai/ha): 90; Ragweed plant response rating (0 to 100 scale) [18, 19]: 90
CC(C)O/N=C(\c1c(O)c(Cl)nn(C)c1=O)c1ccc(F)c2ccccc12 [Compound 210]	90	45	0	0	30	100	0	20	90	100	30	80	0	0	0	90	40	100	0	20	Foxtail, Giant plant response rating (0 to 100 scale) ([12]; Postemergence, 31 g ai/ha): 70; Foxtail, Giant plant response rating (0 to 100 scale) [12, 19]: 90; Galium plant response rating (0 to 100 scale) ([13]; Postemergence, 31 g ai/ha): 90; Galium plant response rating (0 to 100 scale) [13, 19]: 100; Wheat plant response rating (0 to 100 scale) ([14]; Postemergence, 31 g ai/ha): 0; Wheat plant response rating (0 to 100 scale) [14, 19]: 0; Blackgrass plant response rating (0 to 100 scale) ([15]; Postemergence, 31 g ai/ha): 0; Blackgrass plant response rating (0 to 100 scale) [15, 19]: 30; Corn plant response rating (0 to 100 scale) (corn (Zea mays); Postemergence, 31 g ai/ha): 20; Corn plant response rating (0 to 100 scale) (corn (Zea mays); [19]): 20; Barnyardgrass plant response rating (0 to 100 scale) ([16]; Postemergence, 31 g ai/ha): 40; Barnyardgrass plant response rating (0 to 100 scale) [16, 19]: 70; Kochia plant response rating (0 to 100 scale) (kochia (Bassia scoparia) [17]; Postemergence, 31 g ai/ha): 30; Kochia plant response rating (0 to 100 scale) (kochia (Bassia scoparia) [17]; [19]): 40; Ragweed plant response rating (0 to 100 scale) ([18]; Postemergence, 31 g ai/ha): 90; Ragweed plant response rating (0 to 100 scale) [18, 19]: 90
CCO/N=C(/c1c(O)c(Cl)nn(C)c1=O)c1ccc(F)c2ccccc12 [Compound 211]	0	0	0	0	70	90	30	80	70	90	50	90	0	60	40	100	70	100	30	80	Foxtail, Giant plant response rating (0 to 100 scale) ([12]; Postemergence, 31 g ai/ha): 60; Foxtail, Giant plant response rating (0 to 100 scale) [12, 19]: 90; Galium plant response rating (0 to 100 scale) ([13]; Postemergence, 31 g ai/ha): 100; Galium plant response rating (0 to 100 scale) [13, 19]: 100; Wheat plant response rating (0 to 100 scale) ([14]; Postemergence, 31 g ai/ha): 0; Wheat plant response rating (0 to 100 scale) [14, 19]: 40; Blackgrass plant response rating (0 to 100 scale) ([15]; Postemergence, 31 g ai/ha): 30; Blackgrass plant response rating (0 to 100 scale) [15, 19]: 30; Corn plant response rating (0 to 100 scale) (corn (Zea mays); Postemergence, 31 g ai/ha): 30; Corn plant response rating (0 to 100 scale) (corn (Zea mays); [19]): 20; Barnyardgrass plant response rating (0 to 100 scale) ([16]; Postemergence, 31 g ai/ha): 30; Barnyardgrass plant response rating (0 to 100 scale) [16, 19]: 70; Kochia plant response rating (0 to 100 scale) (kochia (Bassia scoparia) [17]; Postemergence, 31 g ai/ha): 50; Kochia plant response rating (0 to 100 scale) (kochia (Bassia scoparia) [17]; [19]): 90; Ragweed plant response rating (0 to 100 scale) ([18]; Postemergence, 31 g ai/ha): 80; Ragweed plant response rating (0 to 100 scale) [18, 19]: 80
